Reference: ChEMBL document CHEMBL3593228, “Hedgehog inhibitors from Artocarpus communis and Hyptis suaveolens” (Bioorg Med Chem, 2015)
Calls of active or inactive are those of the source. The calls are words filed in the database; no cut-off is given here.

Assays:
[1] = Inhibition of hedgehog signaling pathway in human HaCaT cells assessed as GLI1-mediated transcriptional activity after 12 hrs by luciferase assay; assay type: cell-based
[2] = Cytotoxicity against Hh signaling abnormally activated human PANC1 cells after 24 hrs by fluorometric microculture assay; assay type: functional, cell-based; conditions: PANC-1, 24 h
DU-145 = experiment: Cytotoxicity against Hh signaling abnormally activated human DU145 cells after 24 hrs by fluorometric microculture assay; assay type: functional, cell-based; conditions: DU-145, 24 h
[3] = Cytotoxicity against mouse C3H10T1/2 cells after 24 hrs by fluorometric microculture assay; assay type: cell-based; conditions: C3H 10T1/2, 24 h
[4] = Inhibition of hedgehog signaling pathway in human HaCaT cells assessed as reduction of BCL2 expression after 12 hrs by Western blotting; assay type: cell-based
[5] = molecular target: T1, Zinc finger protein GLI1 (Homo sapiens) (UniProt P08151); experiment: Inhibition of GLI1-DNA (unknown origin) complex formation at 15 to 150 uM after 20 mins by electrophoretic mobility shift assay
T1 sequence (whole entry): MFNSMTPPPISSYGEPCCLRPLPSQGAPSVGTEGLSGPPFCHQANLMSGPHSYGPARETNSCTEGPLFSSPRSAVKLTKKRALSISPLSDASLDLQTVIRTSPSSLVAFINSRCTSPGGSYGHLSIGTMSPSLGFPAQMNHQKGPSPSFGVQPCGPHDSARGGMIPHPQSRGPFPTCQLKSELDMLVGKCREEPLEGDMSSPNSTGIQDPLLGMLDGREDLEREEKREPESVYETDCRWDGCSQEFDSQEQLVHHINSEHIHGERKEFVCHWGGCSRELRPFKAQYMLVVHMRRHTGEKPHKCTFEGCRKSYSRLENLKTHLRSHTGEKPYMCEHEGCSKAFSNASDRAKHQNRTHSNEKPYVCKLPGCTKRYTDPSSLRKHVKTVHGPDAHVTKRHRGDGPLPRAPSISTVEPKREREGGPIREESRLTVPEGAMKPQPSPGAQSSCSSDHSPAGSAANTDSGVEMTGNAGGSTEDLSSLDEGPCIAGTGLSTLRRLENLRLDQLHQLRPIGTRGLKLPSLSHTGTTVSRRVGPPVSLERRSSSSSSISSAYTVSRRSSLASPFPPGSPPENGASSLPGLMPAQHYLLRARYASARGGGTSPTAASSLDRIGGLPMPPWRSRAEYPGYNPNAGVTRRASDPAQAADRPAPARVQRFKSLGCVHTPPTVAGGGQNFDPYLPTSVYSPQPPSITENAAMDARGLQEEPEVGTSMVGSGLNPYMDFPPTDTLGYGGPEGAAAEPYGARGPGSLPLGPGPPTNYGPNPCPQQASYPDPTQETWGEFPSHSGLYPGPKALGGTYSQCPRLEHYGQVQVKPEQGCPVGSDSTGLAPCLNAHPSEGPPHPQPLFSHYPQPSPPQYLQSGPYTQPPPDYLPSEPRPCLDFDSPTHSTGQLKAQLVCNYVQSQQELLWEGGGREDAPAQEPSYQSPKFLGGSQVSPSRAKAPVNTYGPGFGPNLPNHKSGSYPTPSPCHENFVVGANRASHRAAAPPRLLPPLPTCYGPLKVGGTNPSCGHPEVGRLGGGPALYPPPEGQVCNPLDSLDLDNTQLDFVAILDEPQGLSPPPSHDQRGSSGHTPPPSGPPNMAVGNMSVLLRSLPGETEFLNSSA

[6] = Inhibition of hedgehog signaling pathway in human DU145 cells assessed as reduction of BCL2 expression at 7 to 13.9 uM after 12 hrs by Western blotting; assay type: cell-based; conditions: DU-145
[7] = Inhibition of hedgehog signaling pathway in human HaCaT cells assessed as reduction of BCL2 expression at 7.6 uM after 12 hrs by Western blotting; assay type: cell-based
[8] = molecular target: T1, Zinc finger protein GLI1 (Homo sapiens); experiment: Inhibition of GLI1-DNA (unknown origin) complex formation at 15 to 30 uM after 20 mins by electrophoretic mobility shift assay
[9] = Inhibition of hedgehog signaling pathway in human HaCaT cells assessed as reduction of BCL2 expression at 13.9 uM after 12 hrs by Western blotting; assay type: cell-based

Structure (SMILES) | IC50 [1] | inhibition [1] | IC50 [2] | IC50 (DU-145) | IC50 [3] | inhibition [4] | inhibition [5] | inhibition [6] | inhibition [7] | inhibition [8] | inhibition [9]
C=C1C(=O)O[C@H]2/C=C(\C)C[C@@H]3C=C(C/C=C/[C@@](C)(OO)CC[C@H]12)C(=O)O3 | 7.6 µM | Dose-dependent effect | 17.9 µM | 30.3 µM | > 55.6 µM | Dose-dependent effect | Active | Active |  |  | 
CC(C)(O)CCCC1(C)Oc2c(O)ccc(CCC(=O)c3ccc(O)cc3O)c2CC1O (stereo not given) | 43.5 µM |  | 58.8 µM |  |  |  |  |  |  |  | 
CC(C)=CCC/C(C)=C/Cc1c(O)cc2c(c1O)C(=O)C[C@@H](c1ccc(O)cc1)O2 [BONANNIONE A] | 14.6 µM | Dose-dependent effect | 29.9 µM |  | > 75 µM |  |  |  |  |  | 
C=C1C(=O)O[C@H]2/C=C(\C)C[C@@H]3C=C(C/C=C/[C@@](C)(O)CC[C@H]12)C(=O)O3 | 16.3 µM |  | 46.9 µM |  | > 50 µM |  |  |  |  |  | 
C=C1C(=O)O[C@H]2/C=C(\C)C[C@@H]3C=C(CC/C=C(\C)CC[C@H]12)C(=O)O3 | 4 µM | Dose-dependent effect | 12.1 µM | 32.6 µM | > 30.5 µM | Dose-dependent effect | inactive | Active | Active |  | 
CC(C)=CCC/C(C)=C/Cc1c(CCC(=O)c2ccc(O)cc2O)ccc(O)c1O | 23.6 µM | Dose-dependent effect | 42.9 µM | 80.6 µM | > 75 µM |  |  |  |  | Active | 
CC(C)=CCCC1(C)CCc2c(CCC(=O)c3ccc(O)cc3O)ccc(O)c2O1 (stereo not given) | 44.2 µM | Dose-dependent effect | 59.5 µM |  | > 75 µM |  |  |  |  |  | 
COC(C)(C)CCCC1(C)CCc2c(CCC(=O)c3ccc(O)cc3O)ccc(O)c2O1 (stereo not given) | 39.9 µM |  | 48.3 µM |  |  |  |  |  |  |  | 
C/C(=C\Cc1c(CCC(=O)c2ccc(O)cc2O)ccc(O)c1O)CCCC(C)(C)O | > 75 µM |  | > 75 µM |  | > 75 µM |  |  |  |  |  | 
C=C1C(=O)O[C@H]2/C=C(\C)C[C@@H]3C=C(CC[C@@H](OO)C(=C)CC[C@H]12)C(=O)O3 | 4.7 µM | Dose-dependent effect | 15.7 µM | 18.8 µM | > 27.8 µM | Dose-dependent effect | Active | Active |  |  | Active
CC(C)(O)CCCC1(C)CCc2c(CCC(=O)c3ccc(O)cc3O)ccc(O)c2O1 (stereo not given) | 29.5 µM |  | 36.7 µM |  |  |  |  |  |  |  | 
CC(C)=CCCC1(C)Oc2c(O)ccc(CCC(=O)c3ccc(O)cc3O)c2CC1O (stereo not given) | 40.1 µM | Dose-dependent effect | 50 µM |  | > 75 µM |  |  |  |  |  | 
CC1(C)CCC[C@]2(C)Oc3c(O)ccc(CCC(=O)c4ccc(O)cc4O)c3C[C@@H]12 | 40.7 µM | Dose-dependent effect | 34.3 µM | 53.7 µM | > 75 µM |  |  |  |  |  | 
COC(C)(C)CCC/C(C)=C/Cc1c(CCC(=O)c2ccc(O)cc2O)ccc(O)c1O | > 75 µM |  | > 75 µM |  | > 75 µM |  |  |  |  | Active | 
